Assay results as given in US7279499B2, “Substituted benzopyrans as selective estrogen receptor-beta agonists” (Eli Lilly and Company, priority 2004, dated 2007).

melting point | SMILES
195 to 197 °C | OCc1cc(O)cc2c1O[C@@H](c1ccc(O)cc1)[C@H]1CCC[C@@H]21 (single isomer, unassigned) [Example 2B]
62 to 66 °C | CCOCc1cc(O)cc2c1O[C@@H](c1ccc(O)cc1)[C@H]1CCC[C@@H]21 (single isomer, unassigned) [Example 3B]
76 to 80 °C | COCc1cc(O)cc2c1O[C@@H](c1ccc(O)cc1)[C@H]1CCC[C@@H]21 [Example 1B, (3aS, 4R, 9bR)-4-(4-Hydroxy-phenyl)-6-methoxymethyl-1,2,3,3a,4,9b-hexahydro-cyclopenta[c]chromen-8-ol]
